From ChEMBL document CHEMBL1142467, “A novel monoacylglycerol lipase inhibitor with analgesic and anti-inflammatory activity” (Bioorg Med Chem Lett, 2008)
Activity calls are given as the source filed them. The calls are words filed in the database; no cut-off is given here.

Assays:
[1] = target: T1, Fatty-acid amide hydrolase 1 (Rattus norvegicus) (UniProt P97612); experiment: Inhibition of Sprague-Dawley rat FAAH at 100 uM
T1 sequence (whole entry): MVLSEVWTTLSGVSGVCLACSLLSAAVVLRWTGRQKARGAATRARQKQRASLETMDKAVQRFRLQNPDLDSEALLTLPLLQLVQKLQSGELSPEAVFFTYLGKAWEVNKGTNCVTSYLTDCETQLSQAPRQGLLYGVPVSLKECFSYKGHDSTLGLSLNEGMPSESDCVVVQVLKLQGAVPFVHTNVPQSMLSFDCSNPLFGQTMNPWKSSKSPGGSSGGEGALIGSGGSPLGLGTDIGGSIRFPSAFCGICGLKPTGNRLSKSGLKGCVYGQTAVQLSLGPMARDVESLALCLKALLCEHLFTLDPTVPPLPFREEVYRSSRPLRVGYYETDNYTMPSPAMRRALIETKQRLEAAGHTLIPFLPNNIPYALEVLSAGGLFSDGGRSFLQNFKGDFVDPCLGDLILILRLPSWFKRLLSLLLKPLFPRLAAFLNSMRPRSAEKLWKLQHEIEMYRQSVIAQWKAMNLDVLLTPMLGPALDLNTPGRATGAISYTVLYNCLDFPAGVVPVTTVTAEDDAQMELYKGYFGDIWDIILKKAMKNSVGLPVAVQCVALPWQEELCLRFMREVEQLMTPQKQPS

[2] = target: T2, Monoglyceride lipase (Rattus norvegicus) (UniProt Q8R431); experiment: Inhibition of Sprague-Dawley rat MGL at 100 uM
T2 sequence (whole entry): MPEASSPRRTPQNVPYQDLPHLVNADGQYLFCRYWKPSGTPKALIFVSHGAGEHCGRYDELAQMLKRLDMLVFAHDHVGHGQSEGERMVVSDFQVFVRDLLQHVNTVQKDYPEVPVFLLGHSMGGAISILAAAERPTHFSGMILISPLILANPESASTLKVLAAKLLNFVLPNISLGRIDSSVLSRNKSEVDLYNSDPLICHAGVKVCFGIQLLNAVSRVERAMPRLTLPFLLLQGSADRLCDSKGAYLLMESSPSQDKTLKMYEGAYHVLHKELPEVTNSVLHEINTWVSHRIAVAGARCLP

Monoglyceride lipase = target: T3, Monoglyceride lipase (Rattus norvegicus, UniProt Q8R431); experiment: Inhibition of Sprague-Dawley rat MGL
T3 sequence (Q8R431 whole entry): T2 sequence (whole entry)

Rattus norvegicus [3] = experiment: Antiinflammatory activity against carrageenan-induced foot paw edema in rat; format: functional
Rattus norvegicus [4] = experiment: Analgesic activity in rat assessed as inhibition of acetic acid-induced writhing responses at 3.6 mg/kg, ip; format: functional, organism-based; parameters: dose 3.6 mg/kg
Rattus norvegicus [5] = experiment: Antiinflammatory activity against carrageenan-induced foot paw edema in rat at 0.01 mmol/kg, ip; format: functional
Rattus norvegicus [6] = experiment: Analgesic activity in rat assessed as inhibition of acetic acid-induced writhing responses at 36 mg/kg, ip; format: functional, organism-based; parameters: dose 36 mg/kg

Compound | inhibition [1] | inhibition [2] | Ki (Monoglyceride lipase) | ED50 (Rattus norvegicus [3]) | Activity (Rattus norvegicus [4]) | inhibition in vivo at 10 µmol/kg (Rattus norvegicus [5]) | Activity (Rattus norvegicus [6])
NC[C@@H](N)CCCCc1ccccc1 | 0% | 0% | – | – | – | – | –
CCCCCCCC/C=C\CCCCCC[C@H](N)CN | 4.9% | 49.9% | 21.8 µM | 10 µmol/kg | Active | – | –
COc1ccc2c(c1)c(CC(=O)O)c(C)n2C(=O)c1ccc(Cl)cc1 [INDOMETHACIN] | – | – | – | – | – | 47% | –
CCCCCCOc1ccc(CCCC[C@H](N)CN)cc1 | 30.9% | 25.9% | – | – | – | – | –
CCCCCCCCCCCCCCC(=O)C(=O)NCCO | 23.8% | 27.5% | – | – | – | – | –
CCCCCCCC/C=C\CCCCCC[C@@H](N)CN | 25.9% | 42.2% | 39 µM | – | – | – | Active
CCCCCCCCCCCCCC[C@@H](N)CO | 31.3% | 30% | – | – | – | – | –
CCCCCCCCCCCCCCC(N)CN (stereo not given) | 31.2% | 30.3% | 58.7 µM | – | – | – | –
CCCCCCCCCCCCCC[C@H](N)CO | 33.6% | 31.5% | – | – | – | – | –
CCCCCCCC/C=C\CCCCCC[C@@H](N)C(N)=O | 24% | 0% | – | – | – | – | –
